According to patent US8658675B2, “Pyridin-4-yl derivatives” (Actelion Pharmaceuticals Ltd., priority 2009, dated 2014):

Key:
[1] = target: human S1P1 receptor (Homo sapiens, UniProt P21453); test: GTPγS assay to determine EC50 values; assay type: biochemical; details: membranes of CHO cells expressing recombinant human S1P1 receptor; 35S-GTPγS binding
Experimental: GTPγS binding assays are performed in 96 well microtiter plates (Nunc, 442587) in a final volume of 200 μl, using membrane preparations of CHO cells expressing recombinant human S1P1 receptor. Assay conditions are 20 mM Hepes (Fluka, 54461), 100 mM NaCl (Fluka, 71378), 5 mM MgCl2 (Fluka, 63064), 0.1% BSA (Calbiochem, 126609), 1 μM GDP (Sigma, G-7127), 2.5% DMSO (Fluka, 41644), […] ^35S-GTPγS (Amersham Biosciences, SJ1320). The pH is 7.4. Test compounds are dissolved and diluted in 100% DMSO and pre-incubated at room temperature for 30 min in 150 μl of the above assay buffer, in the absence of ^35S-GTPγS. After addition of 50 μl of ^35S-GTPγS, the assay is incubated for 1 h at rt. The assay is terminated by transfer of the reaction mixture to a Multiscreen plate (Millipore, MAHFC1H60) using a cell harvester from Packard Biosciences, and the plates are washed with ice-cold 10 mM Na2HPO4/NaH2PO4 (70%/30%), dried, sealed at the bottom and, after addition of 25 μl MicroScint20 (Packard Biosciences, order#6013621), sealed on the top. Membrane-bound ^35S-GTPγS is measured with a TopCount from Packard Biosciences.
EC50 is the concentration of agonist inducing 50% of the maximal specific ^35S-GTPγS binding. Specific binding is determined by subtracting non-specific binding from maximal binding. Maximal binding is the amount of cpm bound to the Multiscreen plate in the presence of 10 μM of S1P. Non-specific binding is the amount of binding in the absence of an agonist in the assay.
Agonistic activities (EC50 values) of all exemplified compounds have been measured.

[2] = tested on: rat trachea rings; test: Measurement of isometric force development: rat trachea ring constriction; set-up: species or system Female Wistar rats; details: for % trachea constriction at 1 μM: compound at 1 μM, in % of the constriction induced by 50 mM KCl; for potential to constrict rat trachea rings (comparison in words): compared to closest prior art analogues of WO 2008/029371 or to Example 2
Experimental: Animals were obtained from RCC Ltd (Füllinsdorf, Switzerland). Female Wistar rats were euthanized by exposure to CO2. The tracheae were excised and rings from the lower segments were prepared. Rings of trachea were suspended in tissue baths (10 mL) containing Krebs-Henseleit buffer of the following composition (mM): NaCl 115; KCl 4.7; MgSO4 1.2; KH2PO4 1.5; CaCl2 2.5; NaHCO3 25; glucose 10. Bathing solution was maintained at 37° C. and aerated with 95% O2/5% CO2 (pH 7.4). A resting force of 2 g (20 mN) was applied to the ring preparation, and changes in force generation were measured using an isometric force recorder (EMKA Technologies Inc, Paris, France). Viability of rings was assessed by exposure to a depolarizing concentration of KCl (50 mM). Contraction of trachea was expressed as a percentage of the response to KCl.
All compounds were prepared as stock solutions of 0.3 mM in pure DMSO. Compounds were added to the bath (10 mL) in a volume of 33 μL to give a final bath concentration of DMSO of 0.33%.
Contraction of trachea was measured for 15 out of 30 exemplified compounds.

[3] = tested on: circulating lymphocytes; test: Assessment of in vivo efficacy: circulating lymphocytes after oral administration; set-up: species or system normotensive male Wistar rats; details: Rattus norvegicus, Lymphocyte; 6 h after oral administration of 10 mg/kg, male Wistar rats, compared to vehicle group; read-out: Lymphocyte counts
Experimental: The efficacy of the compounds of Formula (I) is assessed by measuring the circulating lymphocytes after oral administration of 3 to 30 mg/kg of a compound of Formula (I) to normotensive male Wistar rats. The animals are housed in climate-controlled conditions with a 12 h-light/dark cycle, and have free access to normal rat chow and drinking water. Blood is collected before and 3, 6 and 24 h after drug administration. Full blood is subjected to hematology using Advia Hematology system (Bayer Diagnostics, Zurich, Switzerland).
All data are presented as mean±SEM. Statistical analyses are performed by analysis of variance (ANOVA) using Statistica (StatSoft) and the Student-Newman-Keuls procedure for multiple comparisons. The null hypothesis is rejected when p<0.05.
Lymphocyte counts 6 h after oral administration have been measured for 23 out of 30 exemplified compounds and are in the range of −42% to −80% with an average of −63%.

Chain of human S1P1 receptor (P21453 whole entry): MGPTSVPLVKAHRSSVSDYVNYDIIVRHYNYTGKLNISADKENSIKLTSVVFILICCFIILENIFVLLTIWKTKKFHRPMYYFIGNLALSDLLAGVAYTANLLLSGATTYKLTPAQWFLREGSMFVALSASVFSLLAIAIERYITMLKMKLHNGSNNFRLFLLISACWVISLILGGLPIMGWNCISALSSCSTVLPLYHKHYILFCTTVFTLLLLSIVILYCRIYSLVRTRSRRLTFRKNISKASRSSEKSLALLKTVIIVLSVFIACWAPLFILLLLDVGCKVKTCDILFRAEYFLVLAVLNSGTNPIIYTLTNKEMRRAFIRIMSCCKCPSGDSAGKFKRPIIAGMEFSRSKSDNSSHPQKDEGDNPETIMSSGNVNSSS

Row | Compound | EC50 [1] [nM] | % trachea constriction at 1 μM [2] [%] | change in vivo at 10 mg/kg [3] [%] | potential to constrict rat trachea rings (comparison in words) [2]
1 | CCc1cc(-c2nnc(-c3cc(OC)nc(C4CCCC4)c3)o2)cc(C)c1OC[C@@H](O)CO [Example 25, (S)-3-{4-[5-(2-Cyclopentyl-6-methoxy-pyridin-4-yl)-[1,3,4]oxadiazol-2-yl]-2-ethyl-6-methyl-phenoxy}-propane-1,2-diol] | 1.9 | 53 | -51 | –
2 | CCc1cc(-c2noc(-c3cc(CCC(C)C)nc(OC)c3)n2)cc(C)c1NS(C)(=O)=O [Example 30, N-(2-Ethyl-4-(5-(2-isopentyl-6-methoxypyridin-4-yl)-1,2,4-oxadiazol-3-yl)-6-methylphenyl)methanesulfonamide] | 5.6 | – | – | –
3 | CCc1cc(-c2noc(-c3cc(CCC(C)C)nc(OC)c3)n2)cc(C)c1OC[C@@H](O)CO [Example 15, (S)-3-(2-Ethyl-4-{5-[2-methoxy-6-(3-methyl-butyl)-pyridin-4-yl]-[1,2,4]oxadiazol-3-yl}-6-methyl-phenoxy)-propane-1,2-diol] | 7.5 | – | – | –
4 | CCc1cc(-c2noc(-c3cc(OC)nc(C4CCCC4)c3)n2)cc(C)c1OC[C@H](O)CO [Example 3, (R)-3-{4-[5-(2-Cyclopentyl-6-methoxy-pyridin-4-yl)-[1,2,4]oxadiazol-3-yl]-2-ethyl-6-methyl-phenoxy}-propane-1,2-diol] | 1 | <5 | -63 | same low potential to constrict rat trachea rings
5 | CCc1cc(-c2nc(-c3cc(OC)nc(C4CCCC4)c3)no2)cc(C)c1OC[C@@H](O)CO [Example 21, (S)-3-{4-[3-(2-Cyclopentyl-6-methoxy-pyridin-4-yl)-[1,2,4]oxadiazol-5-yl]-2-ethyl-6-methyl-phenoxy}-propane-1,2-diol] | 0.7 | <5 | -62 | same low potential to constrict rat trachea rings
6 | CCc1cc(-c2nc(-c3cc(OC)nc(C4CCCC4)c3)no2)cc(C)c1OC[C@@H](O)CNC(=O)CO [Example 23, N-((2S)-3-{4-[3-(2-Cyclopentyl-6-methoxy-pyridin-4-yl)-[1,2,4]oxadiazol-5-yl]-2-ethyl-6-methyl-phenoxy}-2-hydroxy-propyl)-2-hydroxy-acetamide] | 0.4 | – | -56 | –
7 | CCC(CC)c1cc(-c2nc(-c3cc(C)c(NS(C)(=O)=O)c(Cl)c3)no2)cc(OC)n1 [Example 11, N-(2-Chloro-4-{5-[2-(1-ethyl-propyl)-6-methoxy-pyridin-4-yl]-[1,2,4]oxadiazol-3-yl}-6-methyl-phenyl)-methanesulfonamide] | 1.2 | – | -74 | –
8 | CCS(=O)(=O)Nc1c(C)cc(-c2noc(-c3cc(OC)nc(C4CCCC4)c3)n2)cc1Cl [Example 5, Ethanesulfonic acid {2-chloro-4-[5-(2-cyclopentyl-6-methoxy-pyridin-4-yl)-[1,2,4]oxadiazol-3-yl]-6-methyl-phenyl}-amide] | 1.8 | – | -66 | –
9 | CCc1cc(-c2noc(-c3cc(OC)nc(C(CC)CC)c3)n2)cc(C)c1OC[C@@H](O)CN(C)C(=O)CO [Example 9, N-[(2S)-3-(2-Ethyl-4-{5-[2-(1-ethyl-propyl)-6-methoxy-pyridin-4-yl]-[1,2,4]oxadiazol-3-yl}-6-methyl-phenoxy)-2-hydroxy-propyl]-2-hydroxy-N-methyl-acetamide] | 17.8 | – | – | –
10 | CCc1cc(-c2nnc(-c3cc(OC)nc(C4CCCC4)c3)o2)cc(C)c1OC[C@H](O)CO [Example 26, (R)-3-{4-[5-(2-Cyclopentyl-6-methoxy-pyridin-4-yl)-[1,3,4]oxadiazol-2-yl]-2-ethyl-6-methyl-phenoxy}-propane-1,2-diol] | 4 | – | – | –
11 | CCc1cc(-c2noc(-c3cc(OC)nc(C4CCCC4)c3)n2)cc(C)c1OC[C@@H](O)CNC(=O)CO [Example 7, N-((2S)-3-{4-[5-(2-Cyclopentyl-6-methoxy-pyridin-4-yl)-[1,2,4]oxadiazol-3-yl]-2-ethyl-6-methyl-phenoxy}-2-hydroxy-propyl)-2-hydroxy-acetamide] | 0.6 | 50 | -65 | markedly reduced potential to constrict rat trachea rings
12 | COc1cc(-c2nc(-c3cc(C)c(NS(C)(=O)=O)c(Cl)c3)no2)cc(C2CCCCC2)n1 [Example 17, N-{2-Chloro-4-[5-(2-cyclohexyl-6-methoxy-pyridin-4-yl)-[1,2,4]oxadiazol-3-yl]-6-methyl-phenyl}-methanesulfonamide] | 10.2 | – | -80 | –
13 | COc1cc(-c2nc(-c3cc(C)c(OC[C@@H](O)CNC(=O)CO)c(Cl)c3)no2)cc(C2CCCC2)n1 [Example 14, N-((2S)-3-{2-Chloro-4-[5-(2-cyclopentyl-6-methoxy-pyridin-4-yl)-[1,2,4]oxadiazol-3-yl]-6-methyl-phenoxy}-2-hydroxy-propyl)-2-hydroxy-acetamide] | 1.1 | – | -70 | –
14 | CCc1cc(-c2nnc(-c3cc(OC)nc(C4CCCC4)c3)o2)cc(C)c1OC[C@H](O)CNC(=O)CO [Example 28, N-((2R)-3-{4-[5-(2-Cyclopentyl-6-methoxy-pyridin-4-yl)-[1,3,4]oxadiazol-2-yl]-2-ethyl-6-methyl-phenoxy}-2-hydroxy-propyl)-2-hydroxy-acetamide] | 2.3 | – | – | –
15 | CCc1cc(-c2noc(-c3cc(OC)nc(C4CCCCC4)c3)n2)cc(C)c1NS(C)(=O)=O [Example 20, N-{4-[5-(2-Cyclohexyl-6-methoxy-pyridin-4-yl)-[1,2,4]oxadiazol-3-yl]-2-ethyl-6-methyl-phenyl}-methanesulfonamide] | 4.2 | – | -67 | –
16 | CCc1cc(-c2nnc(-c3cc(OC)nc(C4CCCC4)c3)o2)cc(C)c1OC[C@@H](O)CNC(=O)CO [Example 27, N-((2S)-3-{4-[5-(2-Cyclopentyl-6-methoxy-pyridin-4-yl)-[1,3,4]oxadiazol-2-yl]-2-ethyl-6-methyl-phenoxy}-2-hydroxy-propyl)-2-hydroxy-acetamide] | 1.7 | – | -54 | –
17 | CCc1cc(-c2nc(-c3cc(OC)nc(C4CCCC4)c3)no2)cc(C)c1OC[C@H](O)CO [Example 22, (R)-3-{4-[3-(2-Cyclopentyl-6-methoxy-pyridin-4-yl)-[1,2,4]oxadiazol-5-yl]-2-ethyl-6-methyl-phenoxy}-propane-1,2-diol] | 1 | – | – | –
18 | COc1cc(-c2nc(-c3cc(C)c(OC[C@@H](O)CO)c(Cl)c3)no2)cc(C2CCCCC2)n1 [Example 29, (S)-3-{2-Chloro-4-[5-(2-cyclohexyl-6-methoxy-pyridin-4-yl)-[1,2,4]oxadiazol-3-yl]-6-methyl-phenoxy}-propane-1,2-diol] | 4 | – | -62 | –
19 | CCc1cc(-c2nc(-c3cc(OC)nc(C4CCCC4)c3)no2)cc(C)c1OC[C@H](O)CNC(=O)CO [Example 24, N-((2R)-3-{4-[3-(2-Cyclopentyl-6-methoxy-pyridin-4-yl)-[1,2,4]oxadiazol-5-yl]-2-ethyl-6-methyl-phenoxy}-2-hydroxy-propyl)-2-hydroxy-acetamide] | 1.6 | – | – | –
